For 34 molecules, EC50 results are on record in patent US8147818B2, “Hepatitis C virus inhibitors” (Bristol-Myers Squibb Company, priority 2008, dated 2012).

Where two headings read alike, the source gives them in different places.

The subject of this assay is HCV 1b-377-neo replicon cells. Briefly: HCV Replicon assay, HCV 1b-377-neo replicon cells. It is filed as cell-based, HCV 1b genotype. The following applies: Hepatitis C virus. On the procedure:
An HCV Replicon assay was utilized in the present disclosure, and was prepared, conducted and validated as described in commonly owned PCT/US2006/022197 and in O'Boyle et. al. Antimicrob Agents Chemother. 2005 April; 49(4):1346-53.
HCV 1b-377-neo replicon cells were used to test the currently described compound series as well as cells resistant to compound A containing a Y2065H mutation in NS5A (described in application PCT/US2006/022197). The compounds tested were determined to have more than 10-fold less inhibitory activity on cells containing the mutation than wild-type cells indicating a related mechanism of action between the two compound series. Thus, the compounds of the present disclosure can be effective to inhibit the function of the HCV NS5A protein and are understood to be as effective in combinations as previously described in application PCT/US2006/022197 and commonly owned WO/O4014852. Further, the compounds of the present disclosure can be effective against the HCV 1b genotype. It should also be understood that the compounds of the present disclosure can inhibit multiple genotypes of HCV. […] In one embodiment compounds of the present disclosure are active against the 1a, 1b, 2a, 2b, 3a, 4a, and 5a genotypes.
A general note: Replicon systems follow genome replication, usually without infectious particles.

The mark [1] stands for this setting: read-out: EC50 against HCV 1b (Activity or Range), range class.
Setting [2] is: read-out: EC50 against HCV 1b (Activity or Range).

With `CCN(CC)[C@@H](C(=O)N1CCC[C@H]1c1ncc(-c2ccc(-c3ccc4c(c3)CCCc3[nH]c([C@@H]5CCCN5C(=O)[C@@H](c5ccccc5)N(CC)CC)nc3-4)cc2F)[nH]1)c1ccccc1` [Example 22g.1], under setting [1], the EC50 – broadly, the concentration needed to bring the measured effect to its halfway point – fell in the range of 0.001 to 0.1 nM.

In the case of `COC(=O)N[C@H](C(=O)N1CCC[C@H]1c1nc2c([nH]1)CCCc1cc(-c3ccc(-c4[nH]c([C@@H]5CCCN5C(=O)[C@@H](NC(=O)OC)C(C)C)nc4CCC(F)(F)F)cc3)ccc1-2)C(C)C` [Example 22a.4], under setting [1], the 50% effective concentration (EC50) fell in the range of 0.001 to 0.1 nM.

Consider `COC(=O)N[C@H](C(=O)N1CCC[C@H]1c1nc2ccc3cc(-c4ccc5c(ccc6[nH]c([C@@H]7CCCN7C(=O)[C@H](NC(=O)OC)c7ccccc7)nc65)c4)ccc3c2[nH]1)C(C)C` [Example 24.1a], for which the EC50 under setting [1] was in the range of 0.001 to 0.1 nM.

Regarding `CCN(CC)[C@@H](C(=O)N1CCC[C@H]1c1ncc(-c2ccc(-c3ccc4c(c3)CCCc3c-4nc([C@@H]4CCCN4C(=O)[C@@H](c4ccccc4)N(CC)CC)n3O)cc2)[nH]1)c1ccccc1` [Example 22n.1], the concentration giving a half-maximal response (EC50) under setting [1] was in the range of 0.001 to 0.1 nM.

`CCN(CC)[C@@H](C(=O)N1CCC[C@H]1c1ncc(-c2ccc(-c3ccc4c(c3)CCc3[nH]c([C@@H]5CC(F)(F)CN5C(=O)[C@@H](c5ccccc5)N(CC)CC)nc3-4)cc2)[nH]1)c1ccccc1` [Example 22t.1a]: under setting [1], the EC50 lay in the range of 0.001 to 0.1 nM.

Turning to `COC(=O)N[C@H](C(=O)N1CCC[C@H]1c1ncc(-c2ccc(-c3ccc4c(c3)CCc3[nH]c([C@@H]5CCCN5C(=O)[C@@H](NC(=O)OC)C(C)C)nc3-4)cc2F)[nH]1)C(C)C` [Example 22s], the half-maximal effective concentration (EC50) under setting [1] was 0.001 to 0.1 nM.

Take `CCN(CC)[C@@H](C(=O)N1CCC[C@H]1c1ncc(-c2cccc(-c3ccc4c(c3)-c3nc([C@@H]5CCCN5C(=O)[C@@H](c5ccccc5)N(CC)CC)[nH]c3CCC4)c2)[nH]1)c1ccccc1` [Example 22j.1]: the EC50 under setting [1] was in the range of 1 to 99 nM.

Regarding `COC(=O)N[C@H](C(=O)N1[C@@H]2C[C@@H]2C[C@H]1c1ncc(-c2ccc(-c3ccc4c(c3)CCc3[nH]c([C@@H]5C[C@H]6C[C@H]6N5C(=O)[C@@H](NC(=O)OC)C(C)C)nc3-4)cc2)[nH]1)C(C)C` [Example 22r.2], under setting [1], the half-maximal effective concentration (EC50) was 0.001 to 0.1 nM.

On to `CCN(CC)[C@@H](C(=O)N1CCC[C@H]1c1ncc(-c2ccc(-c3ccc4c(ccc5[nH]c([C@@H]6CCCN6C(=O)[C@@H](c6ccccc6)N(CC)CC)nc54)c3)cc2)[nH]1)c1ccccc1` [Example 22u.a], for which the EC50 under setting [2] was determined as 0.01 nM.

Turning to `COC(=O)N[C@H](C(=O)N[C@@H](C)c1ncc(-c2ccc(-c3ccc4c(c3)CCCc3[nH]c([C@@H]5CCCN5C(=O)[C@@H](NC(=O)OC)C(C)C)nc3-4)cc2)[nH]1)C(C)C` [Example 22f], the concentration for a half-maximal effect (EC50) under setting [1] is 0.001 to 0.1 nM.

On to `CCN(CC)[C@@H](C(=O)N1CC(F)(F)C[C@H]1c1ncc(-c2ccc(-c3ccc4c(ccc5[nH]c([C@@H]6CCCN6C(=O)[C@@H](c6ccccc6)N(CC)CC)nc54)c3)cc2)[nH]1)c1ccccc1` [Example 22w.a], for which the EC50 under setting [2] amounted to 0.12 nM.

As to `COC(=O)N[C@H](C(=O)N1CCC[C@H]1c1nc2c([nH]1)CCc1cc(-c3ccc(-c4[nH]c([C@@H]5CCCN5C(=O)[C@@H](NC(=O)OC)C(C)C)nc4CCC(F)(F)F)cc3)ccc1-2)C(C)C` [Example 22r.1], under setting [1], the EC50 was in the range of 0.001 to 0.1 nM.

For the molecule `CCN(CC)[C@@H](C(=O)N1CC(F)(F)C[C@H]1c1ncc(-c2ccc(-c3ccc4c(ccc5[nH]c([C@@H]6CC(F)(F)CN6C(=O)[C@@H](c6ccccc6)N(CC)CC)nc54)c3)cc2)[nH]1)c1ccccc1` [Example 22w.2a], the EC50 under setting [1] lay within 0.001 to 0.1 nM.

For the molecule `COC(=O)N[C@@H](C(=O)N1CCC[C@H]1c1nc2c(ccc3cc(-c4ccc5c(ccc6nc([C@@H]7CCCN7C(=O)[C@H](NC(=O)OC)c7ccccc7)[nH]c65)c4)ccc32)[nH]1)c1ccccc1` [Example 22u.2b], under setting [2], the EC50 worked out at 0.02 nM.

Turning to `COC(=O)N[C@H](C(=O)N1CCC[C@H]1c1ncc(-c2ccc(-c3ccc4c(c3)CCCc3c-4nc([C@@H]4CCCN4C(=O)[C@@H](NC(=O)OC)C(C)C)n3O)cc2)[nH]1)C(C)C` [Example 22n], the half-maximal effective concentration (EC50) under setting [1] fell in the range of 0.001 to 0.1 nM.

Regarding `COC(=O)N[C@@H](C(=O)N1[C@@H]2C[C@@H]2C[C@H]1c1nc2c(ccc3cc(-c4ccc5c(ccc6nc([C@@H]7C[C@H]8C[C@H]8N7C(=O)[C@H](NC(=O)OC)c7ccccc7)[nH]c65)c4)ccc32)[nH]1)c1ccccc1` [Example 22u.5a], the 50% effective concentration (EC50) under setting [1] lay in the range of 0.001 to 0.1 nM.

Regarding `CCN(CC)[C@@H](C(=O)N1[C@@H]2C[C@@H]2C[C@H]1c1ncc(-c2ccc(-c3ccc4c(c3)CCc3[nH]c([C@@H]5C[C@H]6C[C@H]6N5C(=O)[C@@H](c5ccccc5)N(CC)CC)nc3-4)cc2)[nH]1)c1ccccc1` [Example 22r.2a], under setting [1], the EC50 was in the range of 0.001 to 0.1 nM.

Consider `COC(=O)N[C@H](C(=O)N1CCC[C@H]1c1nc2c([nH]1)CCCc1cc(-c3ccc4c(c3)CCCc3[nH]c([C@@H]5CCCN5C(=O)[C@@H](NC(=O)OC)C(C)C)nc3-4)ccc1-2)C(C)C` [Example 22k], for which the EC50 under setting [1] was in the range of 0.001 to 0.1 nM.

Consider `COC(=O)N[C@@H](C(=O)N1CCC[C@H]1c1ncc(-c2ccc(-c3ccc4c(c3)OCCc3[nH]c([C@@H]5CCCN5C(=O)[C@H](NC(=O)OC)c5ccccc5)nc3-4)cc2)[nH]1)c1ccccc1` [Example 22a.1], for which, under setting [1], the half-maximal effective concentration (EC50) lay in the range of 0.001 to 0.1 nM.

For the molecule `COC(=O)N[C@H](C(=O)N1[C@@H]2C[C@@H]2C[C@H]1c1ncc(-c2ccc(-c3ccc4c(c3)CCc3[nH]c([C@@H]5C[C@H]6C[C@H]6N5C(=O)[C@@H](NC(=O)OC)C(C)C)nc3-4)cc2F)[nH]1)C(C)C` [Example 22s.1], under setting [1], the concentration for a half-maximal effect (EC50) is 0.001 to 0.1 nM.

As to `COC(=O)N[C@H](C(=O)N(C)[C@@H](C)c1ncc(-c2ccc(-c3ccc4c(c3)CCCc3[nH]c([C@@H]5CCCN5C(=O)[C@@H](NC(=O)OC)C(C)C)nc3-4)cc2)[nH]1)C(C)C` [Example 22e], the concentration giving a half-maximal response (EC50) under setting [2] was 0.003 nM.

In the case of `COC(=O)N[C@H](C(=O)N1[C@@H]2C[C@@H]2C[C@H]1c1nc2ccc3cc(-c4ccc5c(ccc6[nH]c([C@@H]7C[C@H]8C[C@H]8N7C(=O)[C@H](NC(=O)OC)c7ccccc7)nc65)c4)ccc3c2[nH]1)C(C)C` [Example 24.2a], the 50% effective concentration (EC50) under setting [1] is 0.001 to 0.1 nM.

On to `COC(=O)N[C@H](C(=O)N1CCC[C@H]1c1nc2c([nH]1)CCc1cc(-c3ccc4c(c3)CCc3[nH]c([C@@H]5CCCN5C(=O)[C@@H](NC(=O)OC)C(C)C)nc3-4)ccc1-2)C(C)C` [Example 22r.4], for which the EC50 under setting [1] was in the range of 0.001 to 0.1 nM.

For `CCN(CC)[C@@H](C(=O)N1CCC[C@H]1c1nc2c([nH]1)CCCc1cc(-c3ccc4c(c3)CCCc3[nH]c([C@@H]5CCCN5C(=O)[C@@H](c5ccccc5)N(CC)CC)nc3-4)ccc1-2)c1ccccc1` [Example 22k.1], the EC50 under setting [1] was in the range of 0.001 to 0.1 nM.

With `COC(=O)N[C@H](C(=O)N1CC(F)(F)C[C@H]1c1ncc(-c2ccc(-c3ccc4c(c3)CCCc3[nH]c([C@@H]5CCCN5C(=O)[C@@H](NC(=O)OC)C(C)C)nc3-4)cc2)[nH]1)C(C)C` [Example 22h], the EC50 under setting [1] was 0.001 to 0.1 nM.

For `COC(=O)N[C@H](C(=O)N1[C@@H]2C[C@@H]2C[C@H]1c1nc2ccc3cc(-c4ccc5c(ccc6[nH]c([C@@H]7C[C@H]8C[C@H]8N7C(=O)[C@@H](NC(=O)OC)C7CCOCC7)nc65)c4)ccc3c2[nH]1)C(C)C` [Example 24.2b], the EC50 under setting [1] was in the range of 0.001 to 0.1 nM.

`COC(=O)N[C@H](C(=O)N1CCC[C@H]1c1ncc(-c2ccc(-c3ccc4c(c3)OCc3[nH]c([C@@H]5CCCN5C(=O)[C@@H](NC(=O)OC)C(C)C)nc3-4)cc2)[nH]1)C(C)C` [Example 22r.b]: the EC50 under setting [1] lay within 0.001 to 0.1 nM.

Regarding `COC(=O)N[C@H](C(=O)N1CCC[C@H]1c1ncc(-c2ccc(-c3ccc4c(c3)CCc3[nH]c([C@@H]5CCCN5C(=O)[C@@H](NC(=O)OC)C(C)C)nc3-4)cc2)[nH]1)C(C)C` [Example 22r], the EC50 under setting [1] lay in the range of 0.001 to 0.1 nM.

Regarding `COC(=O)N[C@@H](C(=O)N1[C@@H]2C[C@@H]2C[C@H]1c1ncc(-c2ccc(-c3ccc4c(c3)CCc3[nH]c([C@@H]5C[C@H]6C[C@H]6N5C(=O)[C@H](NC(=O)OC)c5ccccc5)nc3-4)cc2)[nH]1)c1ccccc1` [Example 22r.2b], the concentration for a half-maximal effect (EC50) under setting [1] fell in the range of 0.001 to 0.1 nM.

In the case of `CCN(CC)[C@@H](C(=O)N[C@@H](C)c1nc2c([nH]1)CCCc1cc(-c3ccc(-c4cnc([C@@H]5CCCN5C(=O)[C@@H](c5ccccc5)N(CC)CC)[nH]4)cc3)ccc1-2)c1ccccc1` [Example 22c.1], the EC50 under setting [1] lay in the range of 0.001 to 0.1 nM.

As for `COC(=O)N[C@H](C(=O)N1[C@@H]2C[C@@H]2C[C@H]1c1ncc(-c2ccc(-c3ccc4c(ccc5[nH]c([C@@H]6C[C@H]7C[C@H]7N6C(=O)[C@@H](NC(=O)OC)C(C)C)nc54)c3)cc2)[nH]1)C(C)C` [Example 22u.1], under setting [1], the EC50 was in the range of 0.001 to 0.1 nM.

On to `COC(=O)N[C@@H](C)C(=O)N1CCC[C@H]1c1ncc(-c2ccc(-c3ccc4c(c3)CCCc3[nH]c([C@@H]5CCCN5C(=O)[C@H](C)NC(=O)OC)nc3-4)cc2F)[nH]1` [Example 22g.2], for which the EC50 under setting [2] amounted to 0.02 nM.

As for `CCN(CC)[C@@H](C(=O)N1CCC[C@H]1c1nc2c([nH]1)CCCc1cc(-c3ccc(-c4[nH]c([C@@H]5CCCN5C(=O)[C@@H](c5ccccc5)N(CC)CC)nc4CC(F)(F)F)cc3)ccc1-2)c1ccccc1` [Example 22a.3], under setting [2], the concentration for a half-maximal effect (EC50) worked out at 0.01 nM.

Turning to `COC(=O)N[C@@H](C(=O)N1[C@@H]2C[C@@H]2C[C@H]1c1ncc(-c2ccc(-c3ccc4c(c3)CCc3[nH]c([C@@H]5C[C@H]6C[C@H]6N5C(=O)[C@H](NC(=O)OC)c5ccccc5)nc3-4)cc2F)[nH]1)c1ccccc1` [Example 22s.1b], the EC50 under setting [1] fell in the range of 0.001 to 0.1 nM.
